Test results: patent US8680094B2, “1, 4-benzoxazine compounds and derivatives thereof as therapeutic drugs for the treatment of neurodegenerative conditions” (Board of Regents, The University of Texas System, priority 2008, dated 2014)

Experiments:
[1] = biological target: T1, c-Raf (Homo sapiens, UniProt P04049); assay: In vitro kinase activity; format: biochemical; conditions: percentage of control assays without compound, mean of duplicate
T1 construct: in some cases SignalChem; host or cells: Sf9 insect cells (baculovirus)
Description: (§1) To better understand the mechanism of action of the compounds of the present invention, but in no way a limitation; the effects of HSB-13 and ASK-2a on 20 different kinases were examined in vitro. At 500 nM concentration, ASK-2a inhibited the kinase activities of GSK3α, GSK3β, p38α, p38β, JNK3, MLK3, and B-Raf substantially. […] As described above, ASK-2a protects cerebellar granule neurons against LK-induced death but is ineffective against HCA-induced toxicity of HT-22 cells. In contrast, HSB-13 is protective in both paradigms. […] Previous studies have established that CDK inhibitors can protect neurons against a number of different apoptotic stimuli.
(§2) The activity of each kinase was measured in vitro in the presence either 100 nM or 500 nM ASK-2a. Kinase activity is expressed as a percentage of that in control assays (without ASK-2a). The values are mean of assays performed in duplicate. Substantial inhibition of kinase activity (>20%) is in bold type.
(§3) Table 3: Effect of HSB-13 at 500 nM on 20 different kinases measured in vitro. Kinase activity is expressed as a percentage of that in control assays (without HSB-13). The values are mean of assays performed in duplicate. Substantial inhibition of kinase activity (>20%) is in bold type.
(§4) Effect of chemical compounds c-Raf and B-Raf purified from insect cells. In vitro kinase assays were performed using purified kinase (expressed by baculovirus in Sf9 insect cells) and synthetic substrates under standard conditions using the Kinase Profiling service of Upstate Biotechnology. Briefly, for each assay 5-10 mU of purified kinase is incubated with the chemical compound (0.1-1 uM concentration) in a buffer containing 8 mM MOPS, pH 7.2, 0.2 mM EDTA, 10 mM Mg Acetate and [γ-^33P-ATP] for 40 min at room temperature. MBP is used as substrate. Kinase activity is quantified by measuring ^33P incorporation by spotting an aliquot on P30 filters, washing in 50 mM phosphoric acid and scintillation counting.
(§5) In some cases, effects on c-Raf and B-Raf are assayed by SignalChem as follows. Protein kinase assays (in duplicate or triplicate) were performed at ambient temperature for 20-40 minutes in a final volume of 25 μl. The assay was initiated by the addition of ^33P-ATP and the reaction mixture incubated at ambient temperature for 20-40 minutes, depending on the protein kinase target. After the incubation period, the assay was terminated by spotting 10 μl of the reaction mixture onto Multiscreen phosphocellulose P81 plate. The Multiscreen phosphocellulose P81 plate was washed 3 times for approximately 15 minutes each in a 1% phosphoric acid solution.
(§6) The radioactivity on the P81 plate was counted in the presence of scintillation fluid in a Trilux scintillation counter. Blank control is included all the assay components except the addition of the appropriate substrate (replace with equal volume of assay dilution buffer), was set up for each protein kinase target. The corrected activity for each protein kinase target was determined by removing the blank control value.

[2] = biological target: T2, B-Raf (Homo sapiens, UniProt P15056); assay: In vitro kinase activity; format: biochemical; conditions: percentage of control assays without compound, mean of duplicate
T2 construct: in some cases SignalChem; host or cells: Sf9 insect cells (baculovirus)
Description: as §1, §2, §3, §4, §5, §6

[3] = tested on: primary cortical neurons; assay: HCA-induced neurotoxicity in primary cortical neurons; format: cell-based, rat
[4] = tested on: 3-NP-induced mouse model of Huntington's disease; assay: 3-nitropropionic acid (3-NP)-induced mouse model of Huntington's disease; format: in vivo
Description: 3-Nitropropionic acid administration and behavioral evaluation was done on 8-week old C57BL/6 male mice (Charles River Laboratories, Inc, Wilmington, Mass.) administered with 3-NP in ten intraperitoneal injections (50 mg/kg twice a day for 5 days) with or without HSB-13 (2 mg/kg). Injections of HSB-13 were performed 30 min before 3-NP administration. Control animals received saline injections. On the day following the 5 days of injection, locomotor activity was assessed using The TRU-SCAN® activity monitoring system (Coulborn Instruments, PA) as previously described (Chin et al., 2004; Chen et al., 2008b). The following behavioral parameters were selected: (1) Total movements time, (2) Total movement distance: the sum of all vectored X-Y coordinate changes in the floor plane, (3)Average distance per movement, (4) Mean velocity: the mean velocity of all X-T coordinate change defined movements. Following behavioral evaluation, the mice were deeply anesthetized and brains removed. The brains were fixed in 4% paraformaldehyde in 0.1 M phosphate buffer and cryoprotected in 20% sucrose in 0.1 M phosphate buffer. Coronal sections were cut on a cryostat at 40 microns and stained with cresyl violet (Sigma-Aldrich) as previously described (Chin et al., 2004; Chen et al., 2008b).
3-Nitropropionic acid administration and behavioral evaluation. 8-week old C57BL/6 male mice (Charles River Laboratories, Inc, Wilmington, Mass.) were administered with 3-NP in ten intraperitoneal injections (50 mg/kg twice a day for 5 days) with or without HSB-13 […]). Injections of HSB-13 were performed ˜30 min before 3-NP administration. Control animals received saline injections. On the day following the 5 days of injection, locomotor activity was assessed using THE TRU-SCAN® activity monitoring system (Coulborn Instruments, PA) as previously described (Chin et al. 2004). The following behavioral parameters were selected: (i) Total movements episodes: each movement in the floor plane is a series of coordinate changes with no rest for at least 1 sample interval, (2) Total movement distance: the sum of all vectored X-Y coordinate changes in the floor plane, and (3) Mean velocity: the mean velocity of all X-T coordinate change defined movements. Following behavioral evaluation, the mice were deeply anesthetized and brains removed. The brains were fixed in 4% paraformaldehyde in 0.1 M phosphate buffer and cryoprotected in 20% sucrose in 0.1 M phosphate buffer. Coronal sections were cut on a cryostat at 50 microns and stained with cresyl violet (Sigma).

T1 sequence (P04049 whole entry): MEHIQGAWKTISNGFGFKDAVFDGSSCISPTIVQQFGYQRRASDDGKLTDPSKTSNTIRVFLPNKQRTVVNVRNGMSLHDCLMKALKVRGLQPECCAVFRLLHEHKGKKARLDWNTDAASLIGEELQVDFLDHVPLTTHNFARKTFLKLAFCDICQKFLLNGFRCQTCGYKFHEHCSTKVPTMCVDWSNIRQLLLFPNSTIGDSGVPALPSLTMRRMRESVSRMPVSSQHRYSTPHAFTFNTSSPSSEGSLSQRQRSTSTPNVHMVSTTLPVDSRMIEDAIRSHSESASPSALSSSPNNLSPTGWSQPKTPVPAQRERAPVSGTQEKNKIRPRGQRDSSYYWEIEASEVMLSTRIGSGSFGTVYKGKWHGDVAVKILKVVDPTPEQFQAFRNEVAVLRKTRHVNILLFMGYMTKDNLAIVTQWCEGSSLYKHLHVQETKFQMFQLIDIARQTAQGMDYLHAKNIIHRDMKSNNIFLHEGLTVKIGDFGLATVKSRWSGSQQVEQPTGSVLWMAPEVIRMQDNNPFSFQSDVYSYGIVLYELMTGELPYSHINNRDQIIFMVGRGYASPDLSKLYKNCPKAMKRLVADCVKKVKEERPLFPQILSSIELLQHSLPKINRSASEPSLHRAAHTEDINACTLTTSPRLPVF
T2 sequence (P15056 whole entry): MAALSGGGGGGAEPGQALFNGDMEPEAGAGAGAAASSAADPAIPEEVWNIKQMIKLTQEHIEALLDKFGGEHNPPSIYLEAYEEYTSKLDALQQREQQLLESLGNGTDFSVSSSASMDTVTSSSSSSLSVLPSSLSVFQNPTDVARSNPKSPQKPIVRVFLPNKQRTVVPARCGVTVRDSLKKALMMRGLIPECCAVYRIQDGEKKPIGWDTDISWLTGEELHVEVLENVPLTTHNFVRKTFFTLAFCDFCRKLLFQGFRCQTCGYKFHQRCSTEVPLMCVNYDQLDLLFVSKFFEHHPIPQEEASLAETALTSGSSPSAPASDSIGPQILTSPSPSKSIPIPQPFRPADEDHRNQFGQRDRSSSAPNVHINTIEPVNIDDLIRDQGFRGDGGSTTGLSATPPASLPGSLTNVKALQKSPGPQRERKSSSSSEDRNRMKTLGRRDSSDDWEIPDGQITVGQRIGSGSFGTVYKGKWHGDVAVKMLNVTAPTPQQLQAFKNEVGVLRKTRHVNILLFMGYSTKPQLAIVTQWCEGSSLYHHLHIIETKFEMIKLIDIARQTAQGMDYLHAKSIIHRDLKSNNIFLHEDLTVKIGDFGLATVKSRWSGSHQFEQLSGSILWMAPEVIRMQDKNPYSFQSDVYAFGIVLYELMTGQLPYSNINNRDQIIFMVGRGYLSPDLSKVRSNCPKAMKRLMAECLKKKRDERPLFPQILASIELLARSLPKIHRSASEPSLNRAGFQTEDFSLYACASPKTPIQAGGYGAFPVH

| Structure (SMILES) | % ACTIVITY ([1]; 100 nM) [%] | % ACTIVITY ([1]; 500 nM) [%] | % ACTIVITY ([2]; 100 nM, 0.1 µM) [%] | % ACTIVITY ([2]; 100 nM, listed as ASK2a, 0.1 µM) | protection against HCA-induced neurotoxicity [3] | 3-NP-induced striatal degeneration (cresyl violet histology) ([4]; HSB-13 2 mg/kg body weight, 30 min before each 3-NP injection (50 mg/kg i.p. twice a day, 5 days), FIG. 7A) | locomotor performance: total movement time, total movement distance, average distance per movement, mean velocity ([4]; HSB-13 2 mg/kg, versus 3-NP alone, 15 min period, FIG. 7B) | 3-NP-induced striatal degeneration (cresyl violet histology) ([4]; HSB-13 2.5 mg/kg body weight, FIG. 10A) | locomotor performance: total movement episodes, total movement distance, mean velocity ([4]; HSB-13 2.5 mg/kg, versus 3-NP alone, FIG. 10B) | % ACTIVITY ([2]; 500 nM) [%] |
| --- | --- | --- | --- | --- | --- | --- | --- | --- | --- | --- |
| O=C1Nc2ccccc2OC1=Cc1cc(Br)c(O)c(Br)c1 [ASK-2a] | 92 | 88 | 79 | inhibited efficiently |  |  |  |  |  |  |
| Nc1ccc2c(c1)NC(=O)/C(=C/c1cc(Br)c(O)c(Br)c1)O2 [HSB-13, (Z)-6-amino-2-(3,′5′-dibromo-4′-hydrozybenzylidene)-2H-benzo[b][1,4]oxazin-3(4H)-one] | 97 |  |  |  | protects | substantially reduced | markedly higher | substantially reduced | markedly higher | 43 |
